Measured values: patent publication US6936619B2, “Quinazolinone compounds useful in therapy” (Pfizer, Inc., priority 2002, dated 2005)

Molecular target: T1, α1L Receptor (Oryctolagus cuniculus, UniProt O02824)
T1 construct: A single rabbit aorta was cleaned of connective tissue, cut into rings; from tissue; host or cells: rabbit aorta rings
T1 sequence (O02824 1-466): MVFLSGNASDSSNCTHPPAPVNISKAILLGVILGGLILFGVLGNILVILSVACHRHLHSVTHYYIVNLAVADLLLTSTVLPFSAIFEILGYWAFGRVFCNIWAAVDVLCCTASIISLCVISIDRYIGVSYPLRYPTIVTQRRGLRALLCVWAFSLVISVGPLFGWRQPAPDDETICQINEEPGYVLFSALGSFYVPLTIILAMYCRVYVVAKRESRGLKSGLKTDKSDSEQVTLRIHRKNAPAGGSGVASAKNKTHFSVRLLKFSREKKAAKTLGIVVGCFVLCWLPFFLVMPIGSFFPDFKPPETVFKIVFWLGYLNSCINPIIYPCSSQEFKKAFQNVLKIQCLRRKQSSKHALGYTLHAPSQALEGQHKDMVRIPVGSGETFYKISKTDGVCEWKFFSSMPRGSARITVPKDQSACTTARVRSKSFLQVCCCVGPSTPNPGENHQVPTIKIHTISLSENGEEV
Experiment: Contractile responses of rabbit aorta (methoxamine-induced), antagonist pA2
Settings: rabbit aorta rings, methoxamine as agonist, 60 minutes with compound, Schild analysis; read-out: pA2 v α1L (converted)
Description: Contractile Responses of Rabbit Aorta (α1L Receptor)
A single rabbit aorta was cleaned of connective tissue, cut into rings ˜3 mm in length, then denuded of […] by rubbing very gently with a probe. The lengths of tissue are then mounted in the 5 mL organ baths, which contain the modified Krebs of the following composition (mM): NaCl (119), KCl (4.7), CaCl2 (2.5), KH2PO4 (1.2), MgSO4 (1.2), NaHCO3 (25), glucose (11), and gassed with 95% O2/5% CO2. The tissues are placed under ˜1.5 g tension, and are left to equilibrate for ˜60 minutes on a pump speed of ˜5 mL\minute, adjusting the tension to 1-1.5 g if necessary after 15 and 45 minutes. A 1M stock solution (1×10^−3M bath conc.) of methoxamine in water was made and 1:10 dilutions made using the same diluent. A sensitising dose of 120 mM KCl (bath concentration) was added to each bath. After the maximum response had been reached (usually about 6-8 minutes), the tissues are washed with Krebs solution for 60 minutes, pump speed at ˜2.97 mL/min. […]
The data was captured on ADA analysis in-vitro software, which expresses the readings as a % of the maximum response of the control curve, draws control and test compound dose response curves, and calculates a EC50 and then dose ratio (DR), the ratio between control and treatment curve EC50, for each treatment. […]

- Kb: 0.1 nM
Structure (SMILES): COc1cc(C2CC2)c2c(=O)[nH]c(N3CCc4nc(CN5CCOCC5)ccc4C3)nc2c1 [Example 11, 5-Cyclopropyl-7-methoxy-2-(2-morpholin-4-ylmethyl-7,8-dihydro[1,6]-naphthyridin-6(5H)-yl)-4(3H)-quinazolinone]
